Measurements published in the NIST ThermoML archive (doi:10.1016/j.jct.2013.08.002).

Assay: relative permittivity at various frequencies (dimensionless)
Conditions: 101 kPa, Liquid, Frequency=0.01 MHz, Coaxial cylinder capacitor

NCCNCCO [N-(2-aminoethyl)ethanolamine]
Conditions | relative permittivity
293.2 K | 21.51
299.2 K | 19.87
304.2 K | 18.18
308.2 K | 17.09
314.2 K | 15.84
320.2 K | 14.64
323.2 K | 13.97
330.2 K | 12.89
333.2 K | 12.3
339.2 K | 11.37
343.2 K | 10.77
348.2 K | 10.19
